From ChEMBL document CHEMBL1201862, “PubChem BioAssay data set” (2004)
The source made the active and inactive calls.

Experiments:
Hexokinase HKDC1 = molecular target: T1, Hexokinase HKDC1 (Homo sapiens, UniProt Q2TB90); assay: inhibition of HKDC1 glucose phosphorylation – biochemical, W721R variant, dose response (AID 504729); format: functional
T1 sequence (Q2TB90 whole entry): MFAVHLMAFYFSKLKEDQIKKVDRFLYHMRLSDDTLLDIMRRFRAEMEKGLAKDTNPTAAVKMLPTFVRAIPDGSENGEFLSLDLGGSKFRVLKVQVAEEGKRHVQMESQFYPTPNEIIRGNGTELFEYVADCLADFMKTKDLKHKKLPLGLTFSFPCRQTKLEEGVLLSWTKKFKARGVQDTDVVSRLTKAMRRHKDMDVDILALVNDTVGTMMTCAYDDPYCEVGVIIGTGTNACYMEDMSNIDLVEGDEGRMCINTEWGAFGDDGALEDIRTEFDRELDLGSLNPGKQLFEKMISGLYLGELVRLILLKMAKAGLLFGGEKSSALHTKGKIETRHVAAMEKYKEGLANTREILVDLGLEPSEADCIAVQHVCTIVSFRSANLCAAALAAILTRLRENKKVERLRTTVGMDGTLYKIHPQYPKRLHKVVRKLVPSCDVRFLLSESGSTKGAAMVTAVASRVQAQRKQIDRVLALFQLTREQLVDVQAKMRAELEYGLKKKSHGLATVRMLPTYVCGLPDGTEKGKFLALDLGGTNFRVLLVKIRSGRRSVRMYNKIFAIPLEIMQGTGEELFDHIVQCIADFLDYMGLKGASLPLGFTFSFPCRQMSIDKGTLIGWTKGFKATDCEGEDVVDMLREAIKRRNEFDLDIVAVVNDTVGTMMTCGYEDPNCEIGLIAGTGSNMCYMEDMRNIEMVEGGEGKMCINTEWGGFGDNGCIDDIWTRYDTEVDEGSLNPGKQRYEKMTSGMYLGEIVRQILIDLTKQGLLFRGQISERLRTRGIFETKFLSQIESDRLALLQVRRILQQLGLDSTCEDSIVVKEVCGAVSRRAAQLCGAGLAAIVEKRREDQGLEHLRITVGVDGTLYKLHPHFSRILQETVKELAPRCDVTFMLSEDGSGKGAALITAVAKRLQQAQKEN

[1] = fluconazole-exposed Candida albicans growth modulators – fluorescence, retest, confirmation (AID 2467); format: functional, cell-based
[2] = molecular target: Serine/threonine-protein kinase TAO1 (Homo sapiens, UniProt Q7L7X3); format: functional
Chain of Serine/threonine-protein kinase TAO1 (Q7L7X3 whole entry): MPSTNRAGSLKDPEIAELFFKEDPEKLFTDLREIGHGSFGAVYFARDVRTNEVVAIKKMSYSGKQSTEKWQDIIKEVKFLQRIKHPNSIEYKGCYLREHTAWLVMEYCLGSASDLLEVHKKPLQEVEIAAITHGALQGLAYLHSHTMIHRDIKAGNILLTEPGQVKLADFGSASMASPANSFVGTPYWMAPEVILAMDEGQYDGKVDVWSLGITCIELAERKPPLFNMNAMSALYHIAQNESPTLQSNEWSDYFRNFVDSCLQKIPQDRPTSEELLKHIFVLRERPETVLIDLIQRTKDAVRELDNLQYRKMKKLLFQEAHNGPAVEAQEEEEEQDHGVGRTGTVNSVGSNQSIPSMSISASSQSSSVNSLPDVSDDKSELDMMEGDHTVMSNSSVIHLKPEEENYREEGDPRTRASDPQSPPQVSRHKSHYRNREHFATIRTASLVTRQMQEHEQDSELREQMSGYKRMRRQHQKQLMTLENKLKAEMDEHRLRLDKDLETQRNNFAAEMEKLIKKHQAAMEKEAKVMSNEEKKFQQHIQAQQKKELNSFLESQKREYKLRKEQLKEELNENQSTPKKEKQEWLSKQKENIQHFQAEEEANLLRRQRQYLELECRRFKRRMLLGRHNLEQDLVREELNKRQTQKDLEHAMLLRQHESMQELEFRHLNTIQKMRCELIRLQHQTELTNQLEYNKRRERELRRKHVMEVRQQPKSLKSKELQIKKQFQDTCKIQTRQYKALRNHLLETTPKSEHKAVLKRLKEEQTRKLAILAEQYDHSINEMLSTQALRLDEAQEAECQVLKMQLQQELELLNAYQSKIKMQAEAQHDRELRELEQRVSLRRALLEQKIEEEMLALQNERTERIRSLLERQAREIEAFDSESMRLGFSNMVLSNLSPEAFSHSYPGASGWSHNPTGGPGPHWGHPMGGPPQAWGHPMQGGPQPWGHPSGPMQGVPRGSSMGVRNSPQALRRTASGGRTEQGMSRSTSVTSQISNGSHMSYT

[3] = molecular target: Hepatocyte growth factor receptor (Homo sapiens, UniProt P08581); format: functional;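 also: kinase panel profiling across the kinome, with MET as the panel member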
Chain of Hepatocyte growth factor receptor (P08581 whole entry): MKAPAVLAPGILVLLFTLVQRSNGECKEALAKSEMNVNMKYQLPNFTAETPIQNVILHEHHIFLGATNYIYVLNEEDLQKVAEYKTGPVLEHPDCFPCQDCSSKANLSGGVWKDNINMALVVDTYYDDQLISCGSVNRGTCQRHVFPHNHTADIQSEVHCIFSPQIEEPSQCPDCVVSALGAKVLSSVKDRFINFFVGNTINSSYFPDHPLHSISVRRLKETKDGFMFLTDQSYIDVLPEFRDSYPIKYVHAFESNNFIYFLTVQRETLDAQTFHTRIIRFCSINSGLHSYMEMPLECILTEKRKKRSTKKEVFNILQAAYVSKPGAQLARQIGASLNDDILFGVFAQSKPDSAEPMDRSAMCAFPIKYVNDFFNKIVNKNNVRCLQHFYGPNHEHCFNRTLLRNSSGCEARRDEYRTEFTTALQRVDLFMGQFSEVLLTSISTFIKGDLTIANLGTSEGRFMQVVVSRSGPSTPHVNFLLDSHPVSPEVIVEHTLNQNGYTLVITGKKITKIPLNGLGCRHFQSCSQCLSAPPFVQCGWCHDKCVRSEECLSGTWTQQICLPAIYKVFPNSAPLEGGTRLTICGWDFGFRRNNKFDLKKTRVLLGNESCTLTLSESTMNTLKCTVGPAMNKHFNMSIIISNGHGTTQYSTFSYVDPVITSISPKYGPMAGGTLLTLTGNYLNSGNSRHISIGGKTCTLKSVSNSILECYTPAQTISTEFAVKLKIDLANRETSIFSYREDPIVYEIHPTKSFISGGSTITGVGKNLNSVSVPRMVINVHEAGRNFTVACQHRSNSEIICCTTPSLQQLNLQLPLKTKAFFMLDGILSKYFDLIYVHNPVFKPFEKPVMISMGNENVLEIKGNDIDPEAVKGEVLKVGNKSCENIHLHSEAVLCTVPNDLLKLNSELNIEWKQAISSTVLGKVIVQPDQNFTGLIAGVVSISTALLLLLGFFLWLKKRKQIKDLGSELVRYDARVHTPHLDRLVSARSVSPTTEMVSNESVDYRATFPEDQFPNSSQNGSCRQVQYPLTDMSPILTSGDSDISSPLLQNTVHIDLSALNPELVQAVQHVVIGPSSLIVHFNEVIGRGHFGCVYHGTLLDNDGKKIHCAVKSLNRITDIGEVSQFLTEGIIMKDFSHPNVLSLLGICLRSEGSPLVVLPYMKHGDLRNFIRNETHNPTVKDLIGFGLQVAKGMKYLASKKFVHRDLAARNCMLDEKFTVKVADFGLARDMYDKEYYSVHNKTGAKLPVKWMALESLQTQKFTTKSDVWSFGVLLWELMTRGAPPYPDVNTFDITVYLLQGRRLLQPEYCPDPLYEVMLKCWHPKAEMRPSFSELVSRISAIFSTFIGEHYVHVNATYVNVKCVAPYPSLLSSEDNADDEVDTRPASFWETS

[4] = molecular target: Cyclin-dependent kinase 9 (Homo sapiens, UniProt P50750); format: functional;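 also: value from the CDK9 entry of a kinome-spanning kinase panel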
Chain of Cyclin-dependent kinase 9 (P50750 whole entry): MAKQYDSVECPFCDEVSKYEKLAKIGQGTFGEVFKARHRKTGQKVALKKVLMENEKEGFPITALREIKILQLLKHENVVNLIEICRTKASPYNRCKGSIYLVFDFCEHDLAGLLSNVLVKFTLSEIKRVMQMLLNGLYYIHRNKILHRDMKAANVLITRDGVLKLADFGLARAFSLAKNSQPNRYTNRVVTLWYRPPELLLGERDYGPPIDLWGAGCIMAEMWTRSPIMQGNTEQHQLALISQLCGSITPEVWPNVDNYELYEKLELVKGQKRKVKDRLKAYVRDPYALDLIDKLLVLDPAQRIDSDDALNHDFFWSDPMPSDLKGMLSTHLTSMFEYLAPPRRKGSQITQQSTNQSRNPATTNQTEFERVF

O=C(NC1=C(NC2CCS(=O)(=O)C2)C(=O)c2ccccc2C1=O)c1ccccc1 (stereo not given)
IC50 (Hexokinase HKDC1): 5140 nM (active)

CCCC(=O)NC(c1ccc(N(C)C)cc1)c1ccc2cccnc2c1O (stereo not given)
EC50 [1]: 626 nM (active)

O=C1NC(=O)C(c2c[nH]c3ccccc23)=C1c1nc(N2CCNCC2)nc2ccccc12
Ki [2]: 1000 nM (active) | Ki [3]: 398 nM (active) | Ki [4]: 316 nM (active)
